{"source": "paper PMC8683641", "about": "(Journal of medicinal chemistry, 2021)", "key": {"[1]": {"target": "hCB2 Cannabinoid Receptors (Homo sapiens, UniProt P34972)", "sequence (P34972 whole entry)": "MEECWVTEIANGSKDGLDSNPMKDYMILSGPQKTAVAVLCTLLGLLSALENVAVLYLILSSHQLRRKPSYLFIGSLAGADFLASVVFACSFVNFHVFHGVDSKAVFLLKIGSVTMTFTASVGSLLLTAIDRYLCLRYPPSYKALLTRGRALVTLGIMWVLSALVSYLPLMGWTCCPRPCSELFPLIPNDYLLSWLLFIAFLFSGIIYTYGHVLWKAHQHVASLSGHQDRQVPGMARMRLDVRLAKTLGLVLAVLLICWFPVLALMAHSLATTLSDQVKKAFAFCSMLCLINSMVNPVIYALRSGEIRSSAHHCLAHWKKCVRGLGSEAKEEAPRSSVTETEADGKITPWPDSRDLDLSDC", "assay": "[35S]GTPγS binding assay for efficacy, CHO-hCB2 membranes", "assay_type": "biochemical", "conditions": "from [35S]GTPγS binding"}, "[2]": {"target": "hCB1 (Homo sapiens, UniProt P21554)", "sequence (P21554 whole entry)": "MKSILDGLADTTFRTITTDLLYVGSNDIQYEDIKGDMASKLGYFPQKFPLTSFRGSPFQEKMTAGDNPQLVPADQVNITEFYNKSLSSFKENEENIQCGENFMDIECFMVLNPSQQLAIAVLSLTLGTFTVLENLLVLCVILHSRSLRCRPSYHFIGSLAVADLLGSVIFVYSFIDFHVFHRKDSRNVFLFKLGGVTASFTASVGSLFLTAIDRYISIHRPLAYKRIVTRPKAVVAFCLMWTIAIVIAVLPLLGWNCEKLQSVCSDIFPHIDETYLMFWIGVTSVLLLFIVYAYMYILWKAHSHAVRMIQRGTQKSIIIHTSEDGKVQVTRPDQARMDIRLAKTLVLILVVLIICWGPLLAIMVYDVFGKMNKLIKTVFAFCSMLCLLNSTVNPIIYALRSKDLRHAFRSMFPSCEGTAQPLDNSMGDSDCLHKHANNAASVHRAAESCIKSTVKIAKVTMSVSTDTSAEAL", "assay_type": "binding", "conditions": "propyl tail versus pentyl"}, "[3]": {"system": "hCB2", "assay_type": "binding, human", "conditions": "Ki hCB1 / Ki hCB2"}, "[4]": {"system": "hCB2", "conditions": "literature values; cited from earlier work"}}}
{"smiles": "CCCCCn1cc(C(=O)c2cccc3c2CC(C)(C)C3)c2ccccc21", "note": "[GBD-002, (2,2-dimethyl-2,3-dihydro-1H-inden-4-yl) (1-pentyl-1H-indol-3-yl)methanone]", "values": [{"measurement": "functional characterization at hCB2", "setting": "[1]", "value": "full agonist"}]}
{"smiles": "CCCCCn1cc(C(=O)c2ccc3c(c2)CC(C)(C)C3)c2ccccc21", "note": "[GBD-003, (2,2-Dimethyl-2,3-dihydro-1H-inden-5-yl) (1-pentyl-1H-indol-3-yl)methanone]", "values": [{"measurement": "functional characterization at hCB2", "setting": "[1]", "value": "CB2R antagonist"}]}
{"smiles": "CCCn1cc(C(=O)c2ccc3c(c2)CC(C)(C)C3)c2ccccc21", "note": "[GBD-005, (2,2-dimethyl-2,3-dihydro-1H-inden-5-yl) (1-propyl-1H-indol-3-yl)methanone]", "values": [{"measurement": "reduction in CB1R affinity", "setting": "[2]", "value": "> 60", "unit": "fold"}, {"measurement": "functional characterization at hCB2", "setting": "[1]", "value": "neutral antagonists"}]}
{"smiles": "C=CCCCn1cc(C(=O)c2ccc3c(c2)CC(C)(C)C3)c2ccccc21", "note": "[GBD-013, (2,2-Dimethyl-2,3-dihydro-1H-inden-5-yl) (1-(pent-4-en-1-yl)-1H-indol-3-yl)methanone]", "values": [{"measurement": "selectivity index (SI) for CB2", "setting": "[3]", "value": 10}]}
{"smiles": "C#CCCCn1cc(C(=O)c2ccc3c(c2)CC(C)(C)C3)c2ccccc21", "note": "[GBD-014, (2,2-Dimethyl-2,3-dihydro-1H-inden-5-yl) (1-(pent-4-yn-1-yl)-1H-indol-3-yl)methanone]", "values": [{"measurement": "functional characterization at hCB2", "setting": "[1]; listed as 35", "value": "neutral antagonists"}]}
{"smiles": "C#CCCCn1c(C)c(C(=O)c2ccc3c(c2)CC(C)(C)C3)c2ccccc21", "note": "[GBD-029, (2,2-Dimethyl-2,3-dihydro-1H-inden-5-yl) (2-methyl-1-(pent-4-yn-1-yl)-1H-indol-3-yl)methanone]", "values": [{"measurement": "functional characterization at hCB2", "setting": "[1]; listed as 49", "value": "agonist"}]}
{"smiles": "CCCn1c(C)c(C(=O)c2cccc3ccccc23)c2ccccc21", "note": "[JWH-015]", "values": [{"measurement": "SI (CB2 selectivity)", "setting": "[4]", "value": 24}]}
{"smiles": "CCCn1cc(C(=O)c2cccc3ccccc23)c2ccccc21", "note": "[JWH-072]", "values": [{"measurement": "SI (CB2 selectivity)", "setting": "[4]", "value": 6}]}
